Active and inactive are the calls of the source. The rule behind the calls is not given here.
Tests used:
[1] = molecular target: Replicase polyprotein 1ab (Severe acute respiratory syndrome coronavirus 2, UniProt P0DTD1); assay: Inhibition of SARS-CoV-2 MPro using Dabcyl-KTSAVLQSGFRKME-Edans as substrate assessed as inhibition constant measured for 10 mins by FRET assay
[2] = molecular target: T1, Procathepsin L (Homo sapiens, UniProt P07711); assay: Covalent irreversible inhibition of human Cathepsin L using Cbz-Phe-Arg-AMC as substrate assessed as reduction in enzyme recovery at 5 fold IC50 preincubated for 60 mins followed by dilution to 1 fold IC50 and substrate addition by fluorescence based assay
Target sequence in this assay (P07711 114-333 limits assumed): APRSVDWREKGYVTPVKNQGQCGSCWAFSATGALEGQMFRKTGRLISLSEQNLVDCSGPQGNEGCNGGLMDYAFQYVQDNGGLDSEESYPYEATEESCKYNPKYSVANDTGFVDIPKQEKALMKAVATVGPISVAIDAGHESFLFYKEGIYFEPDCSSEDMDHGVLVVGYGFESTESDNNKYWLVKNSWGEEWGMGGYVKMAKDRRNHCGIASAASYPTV

[3] = molecular target: Cathepsin B (Homo sapiens, UniProt P07858); assay: Inhibition of human Cathepsin B using Cbz-Phe-Arg-7-amino-4-methylcoumarin as substrate assessed as inhibition constant measured for 10 mins by fluorescence assay
[4] = test system: Huh-7; format: toxicity, cell-based; details: human, huh-7, 24 h
[5] = molecular target: T1, Procathepsin L; assay: Inhibition of human Cathepsin L using Cbz-Phe-Arg-AMC as substrate assessed as inhibition constant measured for 10 mins by fluorescence assay
Target sequence in this assay (P07711 whole entry): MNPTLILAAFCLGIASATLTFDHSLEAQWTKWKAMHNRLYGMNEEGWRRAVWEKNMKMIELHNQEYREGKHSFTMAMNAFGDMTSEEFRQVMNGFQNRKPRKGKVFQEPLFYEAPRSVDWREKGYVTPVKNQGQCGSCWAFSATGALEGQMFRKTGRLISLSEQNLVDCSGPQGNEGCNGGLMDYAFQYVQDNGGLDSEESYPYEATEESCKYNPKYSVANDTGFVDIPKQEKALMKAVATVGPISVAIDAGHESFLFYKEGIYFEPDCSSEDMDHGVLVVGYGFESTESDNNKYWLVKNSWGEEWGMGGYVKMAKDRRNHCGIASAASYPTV

[6] = molecular target: Replicase polyprotein 1ab (Severe acute respiratory syndrome coronavirus 2) (UniProt P0DTD1); assay: Inhibition of SARS-CoV-2 PLpro using Z-RLRGG-AMC acetate as substrate at 100 uM measured for 10 mins by fluorescence assay
[7] = molecular target: Replicase polyprotein 1ab (Severe acute respiratory syndrome coronavirus 2) (UniProt P0DTD1); assay: Covalent irreversible inhibition of SARS-CoV-2 MPro using Dabcyl-KTSAVLQSGFRKME-Edans as substrate assessed as reduction in enzyme recovery at 5 fold IC50 preincubated for 60 mins followed by dilution to 1 fold IC50 and substrate addition by fluorescence based assay
[8] = molecular target: Genome polyprotein (dengue virus type 2) (UniProt P29990); assay: Inhibition of Dengue virus NS2B-NS3 protease Boc-GRR-AMC as substrate at 100 uM measured for 10 mins by fluorescence assay
[9] = molecular target: Replicase polyprotein 1ab (Severe acute respiratory syndrome coronavirus 2) (UniProt P0DTD1); assay: Covalent irreversible inhibition of SARS-CoV-2 MPro using Dabcyl-KTSAVLQSGFRKME-Edans as substrate assessed as reduction in enzyme recovery at 10 fold IC50 preincubated for 60 mins followed by dialysis for 25 hrs further incubated with substrate and measured over 10 mins by fluorescence based assay; details: time 1570.0 min

SMILES: CCCC[C@H](NC(=O)OCc1ccccc1)C(=O)N[C@H](/C=C/C(C)=O)C[C@@H]1CCNC1=O
- Ki [1]: 260 nM
- inhibition [2]: Active
- Ki [3]: 11100 nM
- CC50 [4]: 60900 nM
- Ki [5]: 1920 nM
- inhibition [6]: inactive
- inhibition [7]: Active
- inhibition [8]: inactive

SMILES: CC(=O)/C=C/[C@H](C[C@@H]1CCNC1=O)NC(=O)[C@H](CC(C)(C)C)NC(=O)OCc1ccccc1
- Ki [1]: 416 nM

SMILES: CC(=O)/C=C/[C@H](C[C@@H]1CCNC1=O)NC(=O)[C@H](CC(C)C)NC(=O)OCc1ccccc1
- Ki [1]: 386 nM

SMILES: CC(=O)/C=C/[C@H](C[C@@H]1CCNC1=O)NC(=O)[C@H](CC1CC1)NC(=O)OCc1ccccc1
- Ki [1]: 252 nM
- inhibition [2]: Active
- Ki [3]: 7880 nM
- CC50 [4]: 100000 nM
- Ki [5]: 3380 nM
- inhibition [6]: inactive
- inhibition [7]: Active
- inhibition [9]: Active
- inhibition [8]: inactive

SMILES: CCC[C@H](NC(=O)OCc1ccccc1)C(=O)N[C@H](/C=C/C(C)=O)C[C@@H]1CCNC1=O
- Ki [1]: 1770 nM

SMILES: CC(=O)/C=C/[C@H](C[C@@H]1CCNC1=O)NC(=O)[C@H](CC1CCCCC1)NC(=O)OCc1ccccc1
- Ki [1]: 184 nM
- inhibition [2]: Active
- Ki [3]: 14400 nM
- CC50 [4]: 14500 nM
- Ki [5]: 252 nM
- inhibition [6]: inactive
- inhibition [7]: Active
- inhibition [9]: Active
- inhibition [8]: inactive
